{"source": "paper PMC2655680", "about": "(Nucleic Acids Research, 2009)", "target": "PNK–FHA (FHA domain of human PNK, amino acids 1–109) (Homo sapiens, UniProt Q96T60)", "format": "binding", "conditions": "ITC, peptide injected into PNK–FHA, 10°C, pH 7.5; floating variable of the fit", "note": "Where “and” joins values, the source holds several entries; their conditions need not be identical. Equal entries are not always repeated."}
{"sequence": "YAGSTDENTDSE", "values": [{"measurement": "N (stoichiometry, estimated molar ratio peptide:PNK–FHA)", "value": "0.46 and 0.50 and 0.56 and 0.88 and 0.51"}]}
